The record followed here is patent US10865193B2, “Pyridone derivatives for the treatment of viral infections and further diseases” (JANSSEN SCIENCES IRELAND UNLIMITED COMPANY, priority 2013, dated 2020).

What all share (type): cell-based
The target in one assay is T1, human TLR7 (Homo sapiens, UniProt Q9NYK1).
T1 construct: expressed in transfected cells; host or cells: HEK293 (transient transfection)
T1 sequence (Q9NYK1 27-1049): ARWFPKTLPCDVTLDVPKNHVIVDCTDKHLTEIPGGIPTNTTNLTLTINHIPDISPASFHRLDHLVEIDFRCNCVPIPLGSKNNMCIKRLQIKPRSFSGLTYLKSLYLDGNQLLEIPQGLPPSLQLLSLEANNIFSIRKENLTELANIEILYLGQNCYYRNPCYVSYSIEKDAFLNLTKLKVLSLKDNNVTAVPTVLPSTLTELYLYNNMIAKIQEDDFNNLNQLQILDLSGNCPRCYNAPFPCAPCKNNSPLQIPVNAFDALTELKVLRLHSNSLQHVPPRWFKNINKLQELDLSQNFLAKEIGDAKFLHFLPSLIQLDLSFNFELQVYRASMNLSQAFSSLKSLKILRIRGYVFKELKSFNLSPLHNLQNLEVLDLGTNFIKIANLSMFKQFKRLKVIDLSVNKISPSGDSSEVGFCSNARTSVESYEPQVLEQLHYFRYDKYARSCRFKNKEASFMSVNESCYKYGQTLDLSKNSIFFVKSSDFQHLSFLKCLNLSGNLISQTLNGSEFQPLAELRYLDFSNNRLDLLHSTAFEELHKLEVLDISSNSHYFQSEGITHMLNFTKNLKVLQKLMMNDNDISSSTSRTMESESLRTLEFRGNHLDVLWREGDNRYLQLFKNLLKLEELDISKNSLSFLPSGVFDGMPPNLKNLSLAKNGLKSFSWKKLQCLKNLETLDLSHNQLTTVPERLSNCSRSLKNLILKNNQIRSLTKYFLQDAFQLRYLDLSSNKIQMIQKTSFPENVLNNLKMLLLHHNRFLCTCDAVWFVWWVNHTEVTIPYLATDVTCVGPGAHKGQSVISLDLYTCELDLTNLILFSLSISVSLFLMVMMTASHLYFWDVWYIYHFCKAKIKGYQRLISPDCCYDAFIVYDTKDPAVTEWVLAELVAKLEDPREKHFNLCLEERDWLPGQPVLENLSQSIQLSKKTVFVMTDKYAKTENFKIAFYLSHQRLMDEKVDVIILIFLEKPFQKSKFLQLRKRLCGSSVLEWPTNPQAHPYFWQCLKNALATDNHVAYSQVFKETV
Nature of the assay: TLR7 cellular reporter assay (HEK293, NFκB-luc). The note with it: HEK293 transiently transfected with TLR7 and NFκB-luc; 6 hours incubation; lowest effective concentration. The procedure: (§1) The ability of compounds to activate human TLR7 and/or TLR8 was assessed in a cellular reporter assay using HEK293 cells transiently transfected with a TLR7 or TLR8 expression vector and NFκB-luc reporter construct.
(§2) Briefly, HEK293 cells were grown in culture medium (DMEM supplemented with 10% FCS and 2 mM Glutamine). For transfection of cells in 15 cm dishes, cells were detached with Trypsin-EDTA, transfected with a mix of CMV-TLR7 or TLR8 plasmid (1700 ng), NFκB-luc plasmid (850 ng) and a transfection reagent and incubated for 48 h at 37° C. in a humidified 5% CO2 atmosphere. Transfected cells were then washed in PBS, detached with Trypsin-EDTA and resuspended in medium to a density of 1.25×10^5 cells/mL. Forty microliters of cells were then dispensed into each well in 384-well plates, where 200 nL of compound in 100% DMSO was already present. Following 6 hours incubation at 37° C., 5% CO2, the luciferase activity was determined by adding 15 μL of Steady Lite Plus substrate (Perkin Elmer) to each well and readout performed on a ViewLux ultraHTS microplate imager (Perkin Elmer). Dose response curves were generated from measurements performed in quadruplicates. Lowest effective concentrations (LEC) values, defined as the concentration that induces an effect which is at least two fold above the standard deviation of the assay, were determined for each compound.
On the technique in general: A reporter such as luciferase makes a cellular process visible.

The next assay concerns the target T2, human TLR8 (Homo sapiens, UniProt Q9NR97).
T2 construct: expressed in transfected cells; host or cells: HEK293 (transient transfection)
T2 sequence (Q9NR97 27-1041): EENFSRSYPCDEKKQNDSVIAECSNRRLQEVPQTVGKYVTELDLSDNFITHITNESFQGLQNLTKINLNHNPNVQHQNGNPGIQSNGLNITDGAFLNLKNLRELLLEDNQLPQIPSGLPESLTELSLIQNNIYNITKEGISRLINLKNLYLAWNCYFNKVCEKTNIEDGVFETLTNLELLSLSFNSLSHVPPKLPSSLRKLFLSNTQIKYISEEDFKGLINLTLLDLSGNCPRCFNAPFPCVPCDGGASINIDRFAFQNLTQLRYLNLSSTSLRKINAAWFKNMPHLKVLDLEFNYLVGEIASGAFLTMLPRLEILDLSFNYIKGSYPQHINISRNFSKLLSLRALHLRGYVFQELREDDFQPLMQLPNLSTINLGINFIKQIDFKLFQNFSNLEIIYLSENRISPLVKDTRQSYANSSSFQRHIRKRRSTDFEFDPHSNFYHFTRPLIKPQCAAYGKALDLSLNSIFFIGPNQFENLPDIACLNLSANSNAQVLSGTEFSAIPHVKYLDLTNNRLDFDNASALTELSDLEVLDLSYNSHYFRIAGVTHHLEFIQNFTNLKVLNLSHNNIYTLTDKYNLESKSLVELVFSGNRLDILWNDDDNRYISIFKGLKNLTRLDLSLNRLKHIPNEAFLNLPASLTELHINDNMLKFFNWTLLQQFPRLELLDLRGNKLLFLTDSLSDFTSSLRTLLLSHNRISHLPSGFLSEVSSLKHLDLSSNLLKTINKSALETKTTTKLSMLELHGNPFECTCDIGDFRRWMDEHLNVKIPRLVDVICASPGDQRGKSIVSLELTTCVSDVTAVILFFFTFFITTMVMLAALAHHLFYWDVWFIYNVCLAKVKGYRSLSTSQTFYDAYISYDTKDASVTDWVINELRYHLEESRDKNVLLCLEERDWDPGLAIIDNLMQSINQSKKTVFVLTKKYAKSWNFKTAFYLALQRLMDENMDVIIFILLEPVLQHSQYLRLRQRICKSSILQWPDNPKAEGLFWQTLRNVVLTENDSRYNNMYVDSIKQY
As to the kind of experiment: TLR8 cellular reporter assay (HEK293, NFκB-luc). The note with it: HEK293 transiently transfected with TLR8 and NFκB-luc; 6 hours incubation; lowest effective concentration. As to the method: as §1, §2

The subject of assay [1] is interferon-stimulated responsive elements (ISRE). Nature of the assay: Activation of ISRE promoter elements by conditioned media from PBMC (HEK-ISREluc). The note with it: Homo sapiens; PBMC overnight incubation, supernatant on HEK-ISREluc cells 24 hours; lowest effective concentration; read-out: HEK-ISRE luc (LEC). As to the method:
The potential of compounds to induce IFN-I was also evaluated by measuring the activation of interferon-stimulated responsive elements (ISRE) by conditioned media from PBMC. The ISRE element of sequence GAAACTGAAACT (SEQ ID NO: 1) is highly responsive to the STAT1-STAT2-1RF9 transcription factor, activated upon binding of IFN-I to their receptor IFNAR (Clontech, PT3372-5W). The plasmid pISRE-Luc from Clontech (ref. 631913) contains 5 copies of this ISRE element, followed by the firefly luciferase ORF. A HEK293 cell line stably transfected with pISRE-Luc (HEK-ISREluc) was established to profile the conditioned PBMC cell culture media.
Briefly, PBMCs were prepared from buffy coats of at least two donors using a standard Ficoll centrifugation protocol. Isolated PBMCs were resuspended in RPMI medium supplemented with 10% human AB serum and 2×10^5 cells/well were dispensed into 384-well plates containing compounds (70 μL total volume). After overnight incubation, 10 μL of supernatant was transferred to 384-well plates containing 5×10^3 HEK-ISREluc cells/well in 30 μL (plated the day before). Following 24 hours of incubation, activation of the ISRE elements was measured by assaying luciferase activity using 40 μL/well Steady Lite Plus substrate (Perkin Elmer) and measured with ViewLux ultraHTS microplate imager (Perkin Elmer). The stimulating activity of each compound on the HEK-ISREluc cells was reported as LEC value, defined as the compound concentration applied to the PBMCs resulting in a luciferase activity at least two fold above the standard deviation of the assay. The LEC in turn indicates the degree of ISRE activation on transfer of a defined amount of PBMC culture medium. Recombinant interferon α-2a (Roferon-A) was used as a standard control compound.

As for `CCCCNc1nc(N)ncc1Cn1ccccc1=O` [Compound 1], on human TLR7, the “Human TLR 7 (LEC)” value is 1.8 µM. Besides, the “Human TLR 8 (LEC)” value at human TLR8 stood at 7.3 µM. Further, in assay [1], the minimal effective concentration is 0.7 µM.

On to `CCCCNc1nc(N)ncc1Cn1c(C)cccc1=O` [Compound 2], for which the “Human TLR 7 (LEC)” value on human TLR7 came to 1.1 µM. Moreover, the “Human TLR 8 (LEC)” value on human TLR8 turned out to be 2.1 µM. Besides, in assay [1], the minimal effective concentration is 0.8 µM.

`CCCCNc1nc(N)ncc1Cn1cc(C)ccc1=O` [Compound 3]: the “Human TLR 7 (LEC)” value at human TLR7 was determined as 0.8 µM. Moreover, the “Human TLR 8 (LEC)” value at human TLR8 is 10.3 µM. In addition, in assay [1], the minimal effective concentration was 0.3 µM.

In the case of `CCCCNc1nc(N)ncc1Cn1ccc(C)cc1=O` [Compound 4], the “Human TLR 7 (LEC)” value on human TLR7 amounted to 0.5 µM. Besides, the “Human TLR 8 (LEC)” value on human TLR8 stood at 2.2 µM. Besides, the minimal effective concentration in assay [1] was 0.5 µM.

For the molecule `CCCCNc1nc(N)ncc1Cn1c(=O)ccc2ccccc21` [Compound 5], the “Human TLR 7 (LEC)” value at human TLR7 came out at 0.9 µM. Besides, at human TLR8, the “Human TLR 8 (LEC)” value was determined as 2.7 µM. In assay [1], the minimal effective concentration is 0.04 µM.

As to `CCCCNc1nc(N)ncc1Cn1cccc(F)c1=O` [Compound 6], the “Human TLR 7 (LEC)” value at human TLR7 stood at 1.2 µM. Also, the “Human TLR 8 (LEC)” value at human TLR8 stood at 6.9 µM. Moreover, the minimal effective concentration in assay [1] is 0.5 µM.

Consider `CCCCNc1nc(N)ncc1Cn1ccc(C(F)(F)F)cc1=O` [Compound 7], for which the “Human TLR 7 (LEC)” value at human TLR7 was found to be 0.5 µM. For the same molecule, the “Human TLR 8 (LEC)” value at human TLR8 was 6.8 µM. Besides, in assay [1], the minimal effective concentration turned out to be 0.5 µM.

Consider `CCCCCNc1nc(N)ncc1Cn1ccccc1=O` [Compound 8], for which the “Human TLR 7 (LEC)” value on human TLR7 was 1.5 µM. Also, the “Human TLR 8 (LEC)” value on human TLR8 was above 25 µM. For the same molecule, in assay [1], the minimal effective concentration worked out at 0.6 µM.

For `CCCCCCNc1nc(N)ncc1Cn1ccccc1=O` [Compound 9], the “Human TLR 7 (LEC)” value at human TLR7 was found to be 7.3 µM. Besides, on human TLR8, the “Human TLR 8 (LEC)” value was above 25 µM. In addition, the minimal effective concentration in assay [1] came to 3 µM.

Regarding `CCCCC(C)Nc1nc(N)ncc1Cn1ccccc1=O` (stereo not drawn) [Compound 10], the “Human TLR 7 (LEC)” value on human TLR7 was 1.0 µM. At human TLR8, the “Human TLR 8 (LEC)” value amounted to 16 µM. In addition, the minimal effective concentration in assay [1] amounted to 0.3 µM.

Consider `CCCC(C)Nc1nc(N)ncc1Cn1ccccc1=O` (stereo not drawn) [Compound 11], for which the “Human TLR 7 (LEC)” value on human TLR7 was determined as 1.3 µM. The “Human TLR 8 (LEC)” value at human TLR8 amounted to 14.6 µM. Also, in assay [1], the minimal effective concentration came out at 0.3 µM.
